Assays:
Cavia porcellus [1] = assay: Cardiotoxicity in guinea pig assessed as effect on RR interval time at 5 mg/kg, ip measured after 80 mins by ECG analysis (reference value: 208.4 to 238.4 milliseconds); type: toxicity, organism-based; details: in vivo
Cytochrome P450 3A4 = Cytochrome P450 3A4 (Homo sapiens, UniProt P08684); assay: Inhibition of human supersome CYP3A4 using testosterone as substrate assessed as testosterone 6beta-hydroxylation after 30 mins by HPLC-UV detection; type: ADME
Cytochrome P450 1A2 = Cytochrome P450 1A2 (Homo sapiens, UniProt P05177); assay: Inhibition of human supersome CYP1A2 using caffeine as substrate assessed as caffeine 3-N-demethylation after 30 mins by HPLC-UV detection; type: ADME
Cavia porcellus [2] = assay: Cardiotoxicity in guinea pig assessed as effect on QTc interval time at 5 mg/kg, ip measured after 30 mins by ECG analysis (reference value: […] to […] milliseconds); type: toxicity, organism-based; details: in vivo, 0.5 h
Cavia porcellus [3] = assay: Cardiotoxicity in guinea pig assessed as effect on QTc interval time at 5 mg/kg, ip measured after 80 mins by ECG analysis (reference value: […] to […] milliseconds); type: toxicity, organism-based; details: in vivo
[4] = target: Voltage-gated inwardly rectifying potassium channel KCNH2 (Homo sapiens, UniProt Q12809); assay: Inhibition of human ERG expressed in CHOK1 cells at 10 to 50 uM by whole-cell patch clamp method; type: cell-based
Rattus norvegicus [5] = species: Rattus norvegicus; assay: animal or person; details: Sprague-Dawley, ip, read-out: MED
Description: Reversal of ketamine-induced working social withdrawal in ip dosed Sprague-Dawley rat pretreated for 60 mins followed by ketamine administration

Cavia porcellus [6] = assay: Cardiotoxicity in guinea pig assessed as effect on QTc interval time at 5 mg/kg, ip measured after 50 mins by ECG analysis (reference value: […] to […] milliseconds); type: toxicity, organism-based; details: in vivo
Cavia porcellus [7] = assay: Cardiotoxicity in guinea pig assessed as effect on QT interval time at 5 mg/kg, ip measured after 40 mins by ECG analysis (reference value: 127.6 to 131.2 milliseconds); type: toxicity, organism-based; details: in vivo
Cavia porcellus [8] = assay: Cardiotoxicity in guinea pig assessed as effect on frequence of heart rate at 5 mg/kg, ip measured after 50 mins by ECG analysis (reference value: 262 to 296 /min); type: toxicity, organism-based; details: in vivo
Rattus norvegicus [9] = species: Rattus norvegicus; assay: animal or person; details: Sprague-Dawley, ip, read-out: MED; remark: listed apart in the source
Description: Antipsychotic activity in ip dosed Sprague-Dawley rat assessed as reduction in PCP-induced hyper-locomotion pretreated for 60 mins followed by PCP addition measured for 30 mins starting 15 min after rat reintroduction to auto-tracks

Cavia porcellus [10] = assay: Cardiotoxicity in guinea pig assessed as effect on PR interval time at 5 mg/kg, ip measured after 20 mins by ECG analysis (reference value: 58.8 to 63.8 milliseconds); type: toxicity, organism-based; details: in vivo
Cavia porcellus [11] = assay: Cardiotoxicity in guinea pig assessed as effect on frequence of heart rate at 5 mg/kg, ip measured after 20 mins by ECG analysis (reference value: 262 to 296 /min); type: toxicity, organism-based; details: in vivo
Cavia porcellus [12] = assay: Cardiotoxicity in guinea pig assessed as effect on QRS interval time at 5 mg/kg, ip measured after 20 mins by ECG analysis (reference value: 26.2 to 31.6 milliseconds); type: toxicity, organism-based; details: in vivo
Cavia porcellus [13] = assay: Cardiotoxicity in guinea pig assessed as effect on QRS interval time at 5 mg/kg, ip measured after 50 mins by ECG analysis (reference value: 26.2 to 31.6 milliseconds); type: toxicity, organism-based; details: in vivo
Cavia porcellus [14] = assay: Cardiotoxicity in guinea pig assessed as effect on QRS interval time at 5 mg/kg, ip measured after 10 mins by ECG analysis (reference value: 26.2 to 31.6 milliseconds); type: toxicity, organism-based; details: in vivo
Cavia porcellus [15] = assay: Cardiotoxicity in guinea pig assessed as effect on QT interval time at 5 mg/kg, ip measured after 50 mins by ECG analysis (reference value: 127.6 to 131.2 milliseconds); type: toxicity, organism-based; details: in vivo
Rattus norvegicus [16] = species: Rattus norvegicus; assay: animal or person; details: Sprague-Dawley, ip, read-out: MED; remark: listed apart in the source
Description: Reversal of PCP-induced cognitive impairment in ip dosed Sprague-Dawley rat assessed as reduction in time spent exploring novel object over familiar object pretreated for 60 mins followed by PCP addition by novel object recognition assay

Rattus norvegicus [17] = assay: Effect on failure incidence during conditioned avoidance response test in Sprague-Dawley rat at 3 mg/kg, ip administered 60 mins prior to testing; type: ADME, organism-based; details: in vivo, 1 h
[18] = target: 5-hydroxytryptamine receptor 7 (Homo sapiens, UniProt P34969); assay: biochemical
Description: Displacement of [3H]-5-CT from human 5-HT7R expressed in HEK293 cell membranes after 1 hr at 37 degC by microbeta counting method

[19] = target: T1, 5-hydroxytryptamine receptor 1A (Homo sapiens) (UniProt P08908); assay: Antagonist activity at human 5-HT1AR expressed in mouse BA/F3 cells assessed as inhibition of serotonin-induced calcium flux at 10^-6 M by fluorimetric method; type: functional, cell-based
T1 sequence (whole entry): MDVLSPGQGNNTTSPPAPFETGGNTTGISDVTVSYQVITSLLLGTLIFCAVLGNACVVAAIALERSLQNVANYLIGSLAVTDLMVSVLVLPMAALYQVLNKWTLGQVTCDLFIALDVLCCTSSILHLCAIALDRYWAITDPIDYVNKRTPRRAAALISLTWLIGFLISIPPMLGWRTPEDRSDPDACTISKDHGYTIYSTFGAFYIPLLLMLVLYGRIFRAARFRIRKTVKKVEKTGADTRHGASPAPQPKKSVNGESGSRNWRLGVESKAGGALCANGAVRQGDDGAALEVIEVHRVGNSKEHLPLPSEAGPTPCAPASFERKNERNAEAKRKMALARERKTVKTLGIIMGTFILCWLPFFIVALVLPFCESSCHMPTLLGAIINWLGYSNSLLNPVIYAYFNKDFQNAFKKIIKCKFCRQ

Cavia porcellus [20] = assay: Cardiotoxicity in guinea pig assessed as effect on QT interval time at 5 mg/kg, ip measured after 10 mins by ECG analysis (reference value: 127.6 to 131.2 milliseconds); type: toxicity, organism-based; details: in vivo
Rattus norvegicus [21] = assay: Cardiotoxicity in Wistar rat assessed as effect on blood pressure at 2 to 5 mg/kg, iv; type: toxicity, organism-based; details: in vivo
[22] = Drug level in Wistar rat plasma at 3 mg/kg, ip measured after 15 mins by LC-MS/MS analysis; type: ADME, organism-based
Cavia porcellus [23] = assay: Cardiotoxicity in guinea pig assessed as effect on frequence of heart rate at 5 mg/kg, ip measured after 60 mins by ECG analysis (reference value: 262 to 296 /min); type: toxicity, organism-based; details: in vivo, 1 h
[24] = target: 5-hydroxytryptamine receptor 2B (Homo sapiens) (UniProt P41595); assay: Agonist activity at human 5-HT2BR expressed in CHO cells assessed as induction of IP1 accumulation at 10^-6 M after 30 mins by HTRF method; type: functional, cell-based
Cavia porcellus [25] = assay: Cardiotoxicity in guinea pig assessed as effect on QTc interval time at 5 mg/kg, ip measured after 70 mins by ECG analysis (reference value: […] to […] milliseconds); type: toxicity, organism-based; details: in vivo
[26] = Drug level in Wistar rat brain at 3 mg/kg, ip measured after 60 mins by LC-MS/MS analysis; type: ADME, organism-based; details: read-out: Drug uptake
[27] = target: 5-hydroxytryptamine receptor 2A (Homo sapiens, UniProt P28223); assay: biochemical; type: cell-based, CHO-K1
Cytochrome P450 2C19 = Cytochrome P450 2C19 (Homo sapiens, UniProt P33261); assay: Inhibition of human supersome CYP2C19 using perazine as substrate assessed as perazine N-demethylation after 30 mins by HPLC-UV detection; type: ADME
[28] = target: T1, 5-hydroxytryptamine receptor 1A (Homo sapiens); assay: Partial agonist activity at human 5-HT1AR expressed in CHO-K1 cells assessed as increase in cAMP accumulation at 10^-6 M by chemiluminescence-based assay relative to serotonin; type: functional, cell-based

5-hydroxytryptamine receptor 7, sequence (P34969 whole entry): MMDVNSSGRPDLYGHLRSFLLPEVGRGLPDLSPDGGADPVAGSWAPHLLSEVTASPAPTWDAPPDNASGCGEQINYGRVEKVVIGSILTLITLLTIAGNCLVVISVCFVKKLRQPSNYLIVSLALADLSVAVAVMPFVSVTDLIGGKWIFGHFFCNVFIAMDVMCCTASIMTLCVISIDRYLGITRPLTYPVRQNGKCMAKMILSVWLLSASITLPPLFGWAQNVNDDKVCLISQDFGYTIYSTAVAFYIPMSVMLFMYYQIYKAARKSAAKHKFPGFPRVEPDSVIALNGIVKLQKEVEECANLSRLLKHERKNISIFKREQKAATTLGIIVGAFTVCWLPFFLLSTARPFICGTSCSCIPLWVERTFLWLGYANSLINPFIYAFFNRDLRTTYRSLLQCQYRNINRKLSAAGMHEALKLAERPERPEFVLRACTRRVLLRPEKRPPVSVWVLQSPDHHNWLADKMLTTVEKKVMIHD
Voltage-gated inwardly rectifying potassium channel KCNH2, sequence (Q12809 whole entry): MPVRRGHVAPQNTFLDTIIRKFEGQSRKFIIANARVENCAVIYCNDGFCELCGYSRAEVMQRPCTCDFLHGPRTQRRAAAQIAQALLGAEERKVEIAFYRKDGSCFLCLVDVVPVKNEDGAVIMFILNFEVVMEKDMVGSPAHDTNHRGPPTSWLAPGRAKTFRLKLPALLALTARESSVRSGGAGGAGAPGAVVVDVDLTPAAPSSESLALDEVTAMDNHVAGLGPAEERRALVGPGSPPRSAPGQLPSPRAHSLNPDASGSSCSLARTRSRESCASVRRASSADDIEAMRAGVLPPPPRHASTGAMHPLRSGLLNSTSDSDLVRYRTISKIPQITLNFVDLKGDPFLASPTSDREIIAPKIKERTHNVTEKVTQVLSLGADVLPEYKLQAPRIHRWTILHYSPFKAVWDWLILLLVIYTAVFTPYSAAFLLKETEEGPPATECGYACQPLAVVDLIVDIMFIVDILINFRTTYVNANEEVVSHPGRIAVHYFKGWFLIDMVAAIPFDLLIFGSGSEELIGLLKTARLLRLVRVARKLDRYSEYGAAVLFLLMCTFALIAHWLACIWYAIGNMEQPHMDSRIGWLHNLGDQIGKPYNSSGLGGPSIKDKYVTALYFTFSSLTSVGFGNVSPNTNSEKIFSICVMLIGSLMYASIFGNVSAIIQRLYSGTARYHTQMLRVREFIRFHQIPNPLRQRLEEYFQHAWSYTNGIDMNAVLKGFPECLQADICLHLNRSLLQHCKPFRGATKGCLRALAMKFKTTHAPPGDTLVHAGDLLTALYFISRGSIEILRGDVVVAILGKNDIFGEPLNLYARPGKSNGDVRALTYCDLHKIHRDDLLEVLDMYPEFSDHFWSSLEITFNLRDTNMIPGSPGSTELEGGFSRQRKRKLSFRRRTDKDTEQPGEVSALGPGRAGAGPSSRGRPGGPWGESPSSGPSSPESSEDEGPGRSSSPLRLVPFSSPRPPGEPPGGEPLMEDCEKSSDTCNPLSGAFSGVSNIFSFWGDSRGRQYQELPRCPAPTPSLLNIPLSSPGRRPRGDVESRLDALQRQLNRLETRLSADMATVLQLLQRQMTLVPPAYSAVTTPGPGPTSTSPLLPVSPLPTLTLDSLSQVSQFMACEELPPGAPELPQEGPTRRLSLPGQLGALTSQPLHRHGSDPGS
5-hydroxytryptamine receptor 2B (Homo sapiens), sequence (P41595 whole entry): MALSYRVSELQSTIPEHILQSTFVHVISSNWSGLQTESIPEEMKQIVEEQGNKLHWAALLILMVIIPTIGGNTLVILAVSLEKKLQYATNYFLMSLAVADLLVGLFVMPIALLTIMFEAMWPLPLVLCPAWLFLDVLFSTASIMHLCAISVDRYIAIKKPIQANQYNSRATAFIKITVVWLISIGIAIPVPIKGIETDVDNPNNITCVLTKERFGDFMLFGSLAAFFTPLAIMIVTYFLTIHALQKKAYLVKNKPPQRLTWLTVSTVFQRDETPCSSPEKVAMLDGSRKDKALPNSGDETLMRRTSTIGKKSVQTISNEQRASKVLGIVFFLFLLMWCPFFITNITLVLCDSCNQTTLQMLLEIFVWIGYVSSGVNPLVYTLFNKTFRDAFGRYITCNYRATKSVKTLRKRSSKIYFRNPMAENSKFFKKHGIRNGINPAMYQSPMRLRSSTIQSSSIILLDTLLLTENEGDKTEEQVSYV
Cytochrome P450 1A2, sequence (P05177 whole entry): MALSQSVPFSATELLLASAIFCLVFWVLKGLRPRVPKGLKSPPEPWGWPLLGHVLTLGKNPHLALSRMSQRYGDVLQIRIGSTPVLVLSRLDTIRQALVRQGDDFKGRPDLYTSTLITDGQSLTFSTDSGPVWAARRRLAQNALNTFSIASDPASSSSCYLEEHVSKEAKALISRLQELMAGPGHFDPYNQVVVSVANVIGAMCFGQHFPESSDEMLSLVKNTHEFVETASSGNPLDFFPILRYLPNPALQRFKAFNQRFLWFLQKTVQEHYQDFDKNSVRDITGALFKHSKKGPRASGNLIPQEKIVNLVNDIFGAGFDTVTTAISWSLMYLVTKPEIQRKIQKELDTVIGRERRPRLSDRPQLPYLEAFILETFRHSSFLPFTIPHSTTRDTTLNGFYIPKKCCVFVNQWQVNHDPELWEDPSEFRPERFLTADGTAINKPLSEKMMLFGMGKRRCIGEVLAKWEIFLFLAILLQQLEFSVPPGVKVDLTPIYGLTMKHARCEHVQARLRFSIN
Cytochrome P450 2C19, sequence (P33261 whole entry): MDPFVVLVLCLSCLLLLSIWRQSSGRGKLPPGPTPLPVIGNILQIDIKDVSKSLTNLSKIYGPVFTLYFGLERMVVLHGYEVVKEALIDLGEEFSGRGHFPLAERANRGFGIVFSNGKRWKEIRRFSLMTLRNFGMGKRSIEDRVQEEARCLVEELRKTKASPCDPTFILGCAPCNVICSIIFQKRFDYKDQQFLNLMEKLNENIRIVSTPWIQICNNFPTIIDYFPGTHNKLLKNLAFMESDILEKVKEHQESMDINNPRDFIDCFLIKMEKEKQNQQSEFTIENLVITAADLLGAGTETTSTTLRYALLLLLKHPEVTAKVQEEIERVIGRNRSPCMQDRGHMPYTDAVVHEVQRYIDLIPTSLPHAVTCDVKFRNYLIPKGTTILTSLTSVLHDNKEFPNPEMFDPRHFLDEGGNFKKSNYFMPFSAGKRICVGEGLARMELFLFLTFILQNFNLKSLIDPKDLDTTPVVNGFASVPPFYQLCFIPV
5-hydroxytryptamine receptor 2A, sequence (P28223 whole entry): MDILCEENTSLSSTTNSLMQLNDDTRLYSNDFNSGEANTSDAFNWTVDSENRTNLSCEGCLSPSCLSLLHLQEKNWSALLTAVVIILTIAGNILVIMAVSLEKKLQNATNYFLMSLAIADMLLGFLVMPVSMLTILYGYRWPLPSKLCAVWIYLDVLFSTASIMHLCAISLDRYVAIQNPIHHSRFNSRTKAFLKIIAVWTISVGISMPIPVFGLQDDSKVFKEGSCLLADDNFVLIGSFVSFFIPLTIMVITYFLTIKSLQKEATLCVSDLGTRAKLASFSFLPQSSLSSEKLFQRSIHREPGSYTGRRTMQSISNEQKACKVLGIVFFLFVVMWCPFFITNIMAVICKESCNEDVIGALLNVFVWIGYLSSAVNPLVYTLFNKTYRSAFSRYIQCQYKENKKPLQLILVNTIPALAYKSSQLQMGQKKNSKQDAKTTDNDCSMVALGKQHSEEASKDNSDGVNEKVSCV
Cytochrome P450 3A4, sequence (P08684 whole entry): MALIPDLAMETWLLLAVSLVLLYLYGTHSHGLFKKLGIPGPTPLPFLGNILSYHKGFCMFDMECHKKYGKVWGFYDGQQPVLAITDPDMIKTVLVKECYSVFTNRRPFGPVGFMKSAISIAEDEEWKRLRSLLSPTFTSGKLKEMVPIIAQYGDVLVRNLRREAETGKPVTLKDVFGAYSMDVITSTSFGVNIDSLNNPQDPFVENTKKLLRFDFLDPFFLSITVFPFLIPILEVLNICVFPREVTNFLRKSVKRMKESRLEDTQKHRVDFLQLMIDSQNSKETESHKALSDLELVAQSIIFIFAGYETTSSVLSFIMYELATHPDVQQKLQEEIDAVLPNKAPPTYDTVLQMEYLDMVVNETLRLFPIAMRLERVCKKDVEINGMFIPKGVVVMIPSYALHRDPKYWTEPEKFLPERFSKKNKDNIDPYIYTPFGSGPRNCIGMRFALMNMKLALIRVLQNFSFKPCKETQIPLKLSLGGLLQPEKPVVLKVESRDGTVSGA

## O=S(=O)(c1cncc2ccccc12)N1CCC[C@H]1CCN1CCN(c2cccc3sccc23)CC1
Cavia porcellus [1]
  Time: 214 ms
Cytochrome P450 3A4
  IC50: 10000 nM
Cytochrome P450 1A2
  IC50: > 100000 nM
Cavia porcellus [2]
  Time: 262.8 ms
Cavia porcellus [3]
  Time: 268 ms
[4]
  inhibition (INH): Not Active
Rattus norvegicus [5]
  minimal effective dose: 1 mg/kg
Cavia porcellus [6]
  Time: 265 ms
Cavia porcellus [7]
  Time: 125.2 ms
Cavia porcellus [8]
  Activity: 270 min⁻¹
Rattus norvegicus [9]
  minimal effective dose: 1 mg/kg
Cavia porcellus [10]
  Time: 63.8 ms
Cavia porcellus [11]
  Activity: 256 min⁻¹
Cavia porcellus [12]
  Time: 31.6 ms
Cavia porcellus [13]
  Time: 31.6 ms
Cavia porcellus [14]
  Time: 30.8 ms
Cavia porcellus [15]
  Time: 124.8 ms
Rattus norvegicus [16]
  minimal effective dose: 1 mg/kg
Rattus norvegicus [17]
  Activity: Non-Toxic
[18]
  Ki: 19 nM
[19]
  inhibition: 80%
Cavia porcellus [20]
  Time: 127.4 ms
Rattus norvegicus [21]
  Activity: Non-Toxic
[22]
  concentration at 0.25 h: 188 nM
Cavia porcellus [23]
  Activity: 276 min⁻¹
[24]
  inhibition: 14%
Cavia porcellus [25]
  Time: 265.6 ms
[26]
  concentration at 1 h: 89.3 nM
[27]
  Ki: 9 nM
Cytochrome P450 2C19
  IC50: > 100000 nM
[28]
  Activity: 40.6%

## O=S(=O)(c1cncc2ccccc12)N1CCC[C@H]1CCN1CCN(c2nsc3ccccc23)CC1
Cavia porcellus [1]
  Time: 213 ms
Cytochrome P450 3A4
  IC50: 23000 nM
Cytochrome P450 1A2
  IC50: > 100000 nM
Cavia porcellus [2]
  Time: 280.6 ms
Cavia porcellus [3]
  Time: 273.4 ms
[4]
  inhibition (INH): Active
Rattus norvegicus [5]
  minimal effective dose: 3 mg/kg
Cavia porcellus [6]
  Time: 266 ms
Cavia porcellus [7]
  Time: 125.4 ms
Cavia porcellus [8]
  Activity: 288 min⁻¹
Rattus norvegicus [9]
  minimal effective dose: 1 mg/kg
Cavia porcellus [10]
  Time: 59.6 ms
Cavia porcellus [11]
  Activity: 296 min⁻¹
Cavia porcellus [12]
  Time: 26 ms
Cavia porcellus [13]
  Time: 27 ms
Cavia porcellus [14]
  Time: 25.4 ms
Cavia porcellus [15]
  Time: 121.6 ms
Rattus norvegicus [16]
  minimal effective dose: 1 mg/kg
Rattus norvegicus [17]
  Activity: Non-Toxic
[18]
  Ki: 9 nM
[19]
  inhibition: 87%
Cavia porcellus [20]
  Time: 121.8 ms
Rattus norvegicus [21]
  Activity: Non-Toxic
[22]
  concentration at 0.25 h: 249 nM
Cavia porcellus [23]
  Activity: 288 min⁻¹
[24]
  Kb: 3 nM
Cavia porcellus [25]
  Time: 274.6 ms
[26]
  concentration at 1 h: 49.4 nM
[27]
  Ki: 13 nM
Cytochrome P450 2C19
  IC50: 50000 nM
[28]
  Activity: 5.3%
